According to patent US8580773B2, “Small-molecule inhibitors of the androgen receptor” (The Regents of the University of California, priority 2008, dated 2013):
“Also recorded” adds a separate entry of the source. Counter-ions that a name gives are not always drawn.

Assays:
[1] = target: T1, human androgen receptor (Homo sapiens, UniProt P10275); test: Screen of 1040 FDA-approved drugs and natural products for AR antagonists (MMTV-luciferase transcription assay and C-AR-Y FRET conformation assays); format: cell-based; conditions: test compounds at 10 μM, 10 nM DHT, 24 hours; validated by dose-response
T1 construct: expressed in transfected cells; host or cells: HEK293 and LAPC4 stably expressing C-AR-Y; HEK293 transiently transfected with native AR
T1 sequence (P10275 1-920): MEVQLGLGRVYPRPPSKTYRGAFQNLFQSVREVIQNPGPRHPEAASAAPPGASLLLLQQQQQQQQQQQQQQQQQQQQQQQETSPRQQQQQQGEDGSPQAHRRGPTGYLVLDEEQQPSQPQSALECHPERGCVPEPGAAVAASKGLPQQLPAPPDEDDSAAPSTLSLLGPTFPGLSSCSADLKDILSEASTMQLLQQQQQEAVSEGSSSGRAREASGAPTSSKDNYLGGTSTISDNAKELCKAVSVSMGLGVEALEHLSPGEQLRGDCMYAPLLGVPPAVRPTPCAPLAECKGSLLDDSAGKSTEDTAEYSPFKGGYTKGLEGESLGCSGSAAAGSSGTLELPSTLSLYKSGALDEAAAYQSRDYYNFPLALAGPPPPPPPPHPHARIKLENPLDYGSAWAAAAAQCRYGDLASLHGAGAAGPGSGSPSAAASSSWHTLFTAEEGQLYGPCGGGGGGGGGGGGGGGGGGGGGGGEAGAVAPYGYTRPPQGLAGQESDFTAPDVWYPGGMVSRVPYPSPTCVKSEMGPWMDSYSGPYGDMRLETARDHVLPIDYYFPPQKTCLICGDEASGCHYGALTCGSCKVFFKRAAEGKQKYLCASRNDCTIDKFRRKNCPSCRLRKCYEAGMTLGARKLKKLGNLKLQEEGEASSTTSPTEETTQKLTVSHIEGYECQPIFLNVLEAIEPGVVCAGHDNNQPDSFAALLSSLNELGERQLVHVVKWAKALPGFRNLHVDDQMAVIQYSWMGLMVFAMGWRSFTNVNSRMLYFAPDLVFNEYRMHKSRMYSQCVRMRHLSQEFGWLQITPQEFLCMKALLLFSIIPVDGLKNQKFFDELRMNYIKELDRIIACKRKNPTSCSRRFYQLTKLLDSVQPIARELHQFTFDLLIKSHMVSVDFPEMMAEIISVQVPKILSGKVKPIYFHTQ
Method: A library assembled by the NINDS was screened. The library consisted of 1040 FDA-approved drugs and natural products. A basic strategy to select and compare compounds from each of the primary screens was established (FIG. 1).
The transcription assay was conducted by transfecting 10 cm plates of HEK293 cells with plasmids encoding MMTV-luciferase, SV40-renilla luciferase, and native AR. […] FRET is fluorescence resonance energy transfer between cyan and yellow fluorescent protein derivatives (CFP, YFP) that are fused to the amino and carboxyl termini of the human androgen receptor. When ligand activates the receptor, a conformational change takes place that brings the CFP and YFP into close proximity, thereby allowing FRET to occur. This spectroscopic change is detected using a fluorescence plate reader.
For the transcription assay, transfected cells were pooled before being plated into 96-well dishes with the test compounds at 10 μM. […] Cell and compound transfers were accomplished with a liquid handling robot. Cells were cultured for 24 hours in the presence of 10 nM DHT and the test compounds. After 24 hours, cells were either lysed by freeze-thaw (transcription assay), or fixed in 4% paraformaldehyde for reading on the FPR (FRET assays). Each compound was tested in duplicate in the initial screen.
The compounds were sorted on the basis of anti-androgen effects. […] This eliminated situations in which one test gave a strong response, and the replicate had none. […] For the FRET assays, toxic compounds were easily detected because of their effect on raw CFP and YFP signal, and compounds that reduced this signal below two standard deviations were eliminated.
The top 50 compounds identified in each primary assay were then tested in the other two assays.

[2] = Pharmacokinetics in mice, drug levels by mass spectrometry; format: in vivo
Source text: Serum samples were obtained at fixed time intervals, and the drug levels determined by mass spectrometry.

[3] = test system: LAPC4 cells; test: Cell proliferation (DNA content, DAPI) in LAPC4 cells; format: cell-based, human; conditions: 3 nM DHT, PP 100 nM, HH 100 nM, BiC 1 μM, seven days
Source text: LN-AR cells were created by retroviral infection of a high-expressing AR vector into LNCaP cells, and proliferate independent of androgen in cell culture, unlike their parental line (Chen, C. D., et al., Molecular determinants of resistance to antiandrogen therapy. Nat Med, 2004. 10(1): p. 33-9). HEK293 cells were used as a control. Cells were transferred to charcoal-stripped media two days before they were split and plated in quadruplicate at a density of approximately 20,000 cells/well in 48-well plates. […] Media were changed every day, using a single preparation to ensure consistent compound concentrations. Proliferation was determined by measuring the DNA content of the cells in each well. Each day, the cells in four wells were fixed in 100% cold methanol, followed by staining for 5 min at RT with 0.2 ng/mL 4′,6-diamidino-2-phenylindole (DAPI) in PBS. The cells were washed once in PBS, then read on a fluorescence plate reader using 365/439 excitation/emission wavelengths. LAPC4 and LNCaP cells proliferated to a much greater degree in the presence of DHT, while LN-AR cells proliferated in the presence and absence of DHT.

[4] = target: T2, AR (Homo sapiens, UniProt P10275, T878A); test: DHT titration against inhibitor, PSA-luciferase reporter in LNCaP cells (competitive vs non-competitive); format: cell-based; conditions: moderate dose of inhibitor, DHT titrated, hydrochloride
T2 construct: that each express endogenous AR; endogenous in cells; host or cells: LNCaP
T2 sequence (P10275 whole entry T878A): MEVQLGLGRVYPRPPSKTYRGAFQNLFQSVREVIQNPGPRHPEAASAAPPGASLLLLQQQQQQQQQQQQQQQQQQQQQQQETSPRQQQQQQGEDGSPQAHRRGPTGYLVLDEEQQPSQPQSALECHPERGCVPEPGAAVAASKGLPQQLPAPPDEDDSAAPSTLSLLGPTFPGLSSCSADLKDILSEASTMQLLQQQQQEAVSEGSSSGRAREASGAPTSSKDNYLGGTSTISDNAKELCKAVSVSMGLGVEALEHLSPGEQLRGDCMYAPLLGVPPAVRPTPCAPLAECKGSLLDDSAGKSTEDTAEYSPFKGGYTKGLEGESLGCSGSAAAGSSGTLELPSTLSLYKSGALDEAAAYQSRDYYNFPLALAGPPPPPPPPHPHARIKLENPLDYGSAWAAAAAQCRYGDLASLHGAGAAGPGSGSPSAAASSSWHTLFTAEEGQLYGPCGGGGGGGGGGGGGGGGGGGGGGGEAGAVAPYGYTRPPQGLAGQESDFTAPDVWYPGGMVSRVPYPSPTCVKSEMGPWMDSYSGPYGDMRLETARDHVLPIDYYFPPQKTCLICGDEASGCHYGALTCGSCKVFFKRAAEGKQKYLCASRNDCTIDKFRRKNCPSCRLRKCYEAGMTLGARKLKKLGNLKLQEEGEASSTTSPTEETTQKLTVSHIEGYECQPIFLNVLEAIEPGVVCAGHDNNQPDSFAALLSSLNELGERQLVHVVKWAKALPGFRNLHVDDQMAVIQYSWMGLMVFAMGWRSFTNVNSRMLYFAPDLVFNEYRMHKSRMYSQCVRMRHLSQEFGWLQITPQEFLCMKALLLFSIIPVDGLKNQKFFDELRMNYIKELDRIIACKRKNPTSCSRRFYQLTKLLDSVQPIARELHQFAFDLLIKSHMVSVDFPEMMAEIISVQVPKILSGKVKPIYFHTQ

## Cc1nccc2c1[nH]c1cc(O)ccc12 [HH, harmol hydrochloride]
[1]
  Anti-androgen activity in screen: previously unrecognized anti-androgen activity
[2]; mice, single IP injection 5 mg/kg, 1 hr
  Plasma concentration: 5.0 ng/mL
[2]; wild-type FVB mice, single intraperitoneal injection
  Clearance / half-life (in words): rapidly cleared
[3]
  Inhibition of cell growth: not effective
[4]
  Mode of antagonism on DHT titration: inhibited maximal DHT-induced activation; also recorded: consistent with a non-competitive antagonist
